Common to all, as to conditions: in vivo
Data set [1] in a line: Drug uptake in cynomolgus monkey cerebellum after 40 to 60 mins by PET imaging analysis. In kind it is ADME, tissue-based, Macaca fascicularis.
The nature of data set [2]: Drug uptake in cynomolgus monkey striatum after 40 to 60 mins by PET imaging analysis. In kind it is ADME, tissue-based, Macaca fascicularis.
Data set [3] is described as follows: Half life in cynomolgus monkey cerebellum by PET imaging analysis. In kind it is ADME, tissue-based, Macaca fascicularis.
Data set [4] in a line: Drug uptake in cynomolgus monkey striatum after 10 mins by PET imaging analysis. In kind it is ADME, tissue-based, Macaca fascicularis.
Data set [5] in a line: Drug uptake in cynomolgus monkey striatum after 60 to 90 mins by PET imaging analysis. In kind it is ADME, tissue-based, Macaca fascicularis.
The subject of the next data set is Brain. The data set is described as follows: Drug uptake in cynomolgus monkey brain assessed as dopamine synthesis after 60 to 90 mins by PET imaging analysis in presence of carbidopa. In kind it is ADME, tissue-based, Macaca fascicularis.
A short description of data set [6]: Drug uptake in cynomolgus monkey cortex after 60 to 90 mins by PET imaging analysis. It is filed as ADME, tissue-based, Macaca fascicularis.
The nature of data set [7]: Drug uptake in cynomolgus monkey cerebellum after 60 to 90 mins by PET imaging analysis. It is filed as ADME, tissue-based, Macaca fascicularis.
The nature of data set [8]: Drug uptake in cynomolgus monkey cerebellum after 5 mins by PET imaging analysis. It is filed as ADME, Macaca fascicularis.

Consider `[11CH3]c1ccc(O)cc1C[C@H](N)C(=O)O`, for which the Drug uptake entry (in [1]; in [2]; in data set [4]; in data set [5]; with Brain; in data set [6]) was “Active” throughout. Also, the Drug uptake result in data set [7] and in data set [8] was “Active” throughout. Further, the t1/2 in [3] came to 30 min.

As for `N[C@@H](Cc1cc(O)c(O)cc1[18F])C(=O)O` [FLUORODOPA F 18], the Drug uptake entry (in [1]; in data set [2]; in data set [4]; in [5]; in the data set with Brain; in data set [6]) was “Active” throughout. In addition, the Drug uptake entry in [7] and in data set [8] was “Active” in each case. The same molecule came in with a t1/2 in data set [3] of 50 min.

These data come from ChEMBL document CHEMBL3400127, “Synthesis of 6-[(11)C]methyl-m-tyrosine ([(11)C]6MemTyr) for dopamine synthesis imaging in living brain using PET” (Bioorg Med Chem, 2015).
